The values that follow come from ChEMBL document CHEMBL3132815, “Design, synthesis and activities of 4/5-acyl-2-aminoimidazolyl analogues of oroidin for biofilm inhibition” (Medchemcomm, 2013).

pIC50: −log10 of the molar value. In brackets after ≈: the same amount, converted by molar mass. Where only a bound is given, the exact number is not on record here.

Data set [1] concerns Pseudomonas aeruginosa. The experiment in a line: Antibacterial activity against Pseudomonas aeruginosa PAO1 assessed as planktonic growth at 50 ug/ml. Type of data set: organism-based.
Data set [2] has as its system Staphylococcus epidermidis. The experiment in a line: Antibiofilm activity against Staphylococcus epidermidis 1457 assessed as inhibition of biofilm formation at 50 ug/ml. In kind it is functional.
In data set [3] the test system is Staphylococcus aureus. The experiment in a line: Antibacterial activity against Staphylococcus aureus ATCC 35556 assessed as planktonic growth at 50 ug/ml. Type of data set: organism-based.
Data set [4] concerns Staphylococcus aureus. The experiment in a line: Antibiofilm activity against methicillin-resistant Staphylococcus aureus 1094 assessed as inhibition of biofilm formation at 50 ug/ml. Type of data set: functional.
The subject of data set [5] is Pseudomonas aeruginosa. The experiment in a line: Antibiofilm activity against Pseudomonas aeruginosa PAO1 assessed as inhibition of biofilm formation at 50 ug/ml. In kind it is functional.
Data set [6] deals with Staphylococcus epidermidis. The experiment in a line: Antibacterial activity against Staphylococcus epidermidis GTC 18972 assessed as planktonic growth at 50 ug/ml. Type of data set: organism-based.
In data set [7] the test system is Staphylococcus epidermidis. The experiment in a line: Antibacterial activity against Staphylococcus epidermidis GTC 18972 assessed as planktonic growth. Type of data set: organism-based.
Data set [8] concerns Staphylococcus epidermidis. The experiment in a line: Antibiofilm activity against Staphylococcus epidermidis GTC 18972 assessed as inhibition of biofilm formation. Type of data set: functional.
Data set [9] relates to Staphylococcus aureus. The experiment in a line: Antibacterial activity against methicillin-resistant Staphylococcus aureus assessed as planktonic growth at 50 ug/ml. Type of data set: organism-based. Conditions: in vitro.
Data set [10] concerns Staphylococcus aureus. The experiment in a line: Antibiofilm activity against Staphylococcus aureus ATCC 35556 assessed as inhibition of biofilm formation at 50 ug/ml. In kind it is functional.
Data set [11] has as its system Pseudomonas aeruginosa. The experiment in a line: Antibacterial activity against Pseudomonas aeruginosa PAO1 assessed as planktonic growth. In kind it is organism-based.
Data set [12] has as its system Staphylococcus aureus. The experiment in a line: Antibacterial activity against methicillin-resistant Staphylococcus aureus 1094 assessed as planktonic growth at 50 ug/ml. In kind it is organism-based.
Data set [13] deals with Staphylococcus epidermidis. The experiment in a line: Antibacterial activity against Staphylococcus epidermidis 1457 assessed as planktonic growth at 50 ug/ml. In kind it is organism-based.
For data set [14], the system named is Staphylococcus epidermidis. The experiment in a line: Antibacterial activity against Staphylococcus epidermidis 1457 assessed as planktonic growth. Type of data set: organism-based.
Data set [15] has as its system Staphylococcus epidermidis. The experiment in a line: Antibiofilm activity against Staphylococcus epidermidis 1457 assessed as inhibition of biofilm formation. In kind it is functional.
For data set [16], the system named is Staphylococcus epidermidis. The experiment in a line: Antibiofilm activity against Staphylococcus epidermidis GTC 18972 assessed as inhibition of biofilm formation at 50 ug/ml. In kind it is functional.
Data set [17] deals with Staphylococcus aureus. The experiment in a line: Antibiofilm activity against Staphylococcus aureus ATCC 35556 assessed as inhibition of biofilm formation. In kind it is functional.
The nature of data set [18]: Cytotoxicity against human HeLa cells. In kind it is cell-based.
Data set [19] concerns Staphylococcus aureus. The experiment in a line: Antibacterial activity against Staphylococcus aureus ATCC 35556 assessed as planktonic growth. In kind it is organism-based.
Data set [20] has as its system Pseudomonas aeruginosa. The experiment in a line: Antibiofilm activity against Pseudomonas aeruginosa PAO1 assessed as inhibition of biofilm formation. Type of data set: functional, organism-based.
Data set [21] relates to Staphylococcus aureus. The experiment in a line: Antibiofilm activity against methicillin-resistant Staphylococcus aureus assessed as inhibition of biofilm formation at 50 ug/ml. Type of data set: functional.
Data set [22] concerns Staphylococcus aureus. The experiment in a line: Antibiofilm activity against methicillin-resistant Staphylococcus aureus 1094 assessed as inhibition of biofilm formation. In kind it is functional.
Data set [23] has as its system Staphylococcus aureus. The experiment in a line: Antibiofilm activity against Staphylococcus aureus assessed as inhibition of biofilm formation. In kind it is functional, organism-based.

On to `Nc1ncc(C(=O)CCNC(=O)c2cc(Br)c[nH]2)[nH]1`, for which the Activity in the data set with Pseudomonas aeruginosa [1] was 32.69%; in the data set on Staphylococcus aureus [3], 81.24%; in [6], 86.77%; with Staphylococcus aureus [9], 88.41%; with Staphylococcus aureus [12] it was 88.88%; in data set [13], 85.98%. Also, the inhibition (as a rule, the change of the read-out against control, counted positive when it falls) at 50 µg/mL in data set [2] was determined as 98%; with Staphylococcus aureus [4], 85.5%; in the data set with Pseudomonas aeruginosa [5], 29.6%; in the data set on Staphylococcus aureus [10], 98%; in [16], 97.8%; in the data set with Staphylococcus aureus [21], 88.8%. Also, the MIC is 25 µg/mL (≈ 76.7 µM) in data set [7], “>= 100 ug ml-1” in the data set on Pseudomonas aeruginosa [11], 50 µg/mL (≈ 153 µM) in data set [14] and 50 µg/mL (≈ 153 µM) with Staphylococcus aureus [19]. The MBIC was 25 µg/mL in data set [8], 25 µg/mL in [15], 50 µg/mL in the data set on Staphylococcus aureus [17] and “>=100 ug ml-1” with Pseudomonas aeruginosa [20]. Moreover, the CC50 (in general, the concentration at which the toxic effect on the cells reaches its halfway point) in [18] was 86.4 µg/mL (≈ 265 µM).
In the case of `Nc1ncc(C(=O)CCNC(=O)c2ccc[nH]2)[nH]1`, the Activity in the data set on Pseudomonas aeruginosa [1] is reported as 86.17%; in the data set with Staphylococcus aureus [3] it was 79.94%; in data set [6], 81.99%; in the data set with Staphylococcus aureus [9], 85.37%; in the data set on Staphylococcus aureus [12] it was 86.98%; in [13], 81.58%. Moreover, the inhibition at 50 µg/mL in data set [2] came out at 98%; in the data set with Staphylococcus aureus [4], 86.2%; in the data set on Pseudomonas aeruginosa [5], 92%; in the data set with Staphylococcus aureus [10], 98.1%; in data set [16], 97.8%; with Staphylococcus aureus [21] it was 88.4%. Besides, the MIC in data set [7] turned out to be 12.5 µg/mL (≈ 50.6 µM); in the data set on Pseudomonas aeruginosa [11], 50 µg/mL (≈ 202 µM); in data set [14], 12.5 µg/mL (≈ 50.6 µM); in the data set with Staphylococcus aureus [19], 25 µg/mL (≈ 101 µM). In addition, the MBIC in data set [8] came to 6.25 µg/mL; in the data set with Staphylococcus aureus [22] it was 12.5 µg/mL; in data set [15] it was 6.25 µg/mL; with Staphylococcus aureus [17] it was 6.25 µg/mL; with Pseudomonas aeruginosa [20], 50 µg/mL. In [18], this compound returned a CC50 of 101 µg/mL (≈ 410 µM).
`Nc1nc(C(=O)CCNC(=O)c2cc(Br)c(Br)[nH]2)c[nH]1`: the Activity in the data set with Pseudomonas aeruginosa [1] is 6.46%; in the data set on Staphylococcus aureus [3] it was -4.22%; in [6], 9.62%; with Staphylococcus aureus [9], 1.56%; with Staphylococcus aureus [12], 21.91%; in data set [13] it was -13.68%. Also, the inhibition at 50 µg/mL in data set [2] is 17.8%; with Staphylococcus aureus [4] it was -66%; in the data set on Pseudomonas aeruginosa [5] it was 4.13%; in the data set with Staphylococcus aureus [10] it was -0.94%; in data set [16], 33.8%; in the data set with Staphylococcus aureus [21] it was 28.3%. Besides, in the data set with Pseudomonas aeruginosa [20] (Pseudomonas aeruginosa, PAO1), the negative-log IC50 (pIC50) (usually −log10 of the IC50, conventionally taken in molar units) was 4.22.
Turning to `O=C(NCCC(O)c1cnc2ncccn12)c1cc(Br)c[nH]1` (stereo unspecified), the Activity with Pseudomonas aeruginosa [1] is 17.1%; in the data set on Staphylococcus aureus [3], 4.7%; in data set [6], 6.5%; with Staphylococcus aureus [9], 15.4%; in the data set with Staphylococcus aureus [12] it was 17.3%; in [13] it was 2.9%. Further, the inhibition at 50 µg/mL is 2.6% in data set [2]; 34.3% in the data set on Staphylococcus aureus [4]; 1.9% in the data set with Pseudomonas aeruginosa [5]; 2.2% with Staphylococcus aureus [10]; -14.1% in data set [16]; 8% in the data set on Staphylococcus aureus [21].
For the compound `O=C(NCC(=O)c1cnc2ncccn12)c1cc(Br)c[nH]1`, the Activity in the data set on Pseudomonas aeruginosa [1] is reported as -6.55%; in the data set with Staphylococcus aureus [3], -3.86%; in [6], 19.25%; in the data set on Staphylococcus aureus [9], -6.08%; with Staphylococcus aureus [12], 16.74%; in [13], 13.47%. For the same compound, the inhibition at 50 µg/mL in [2] was 7.83%; in the data set on Staphylococcus aureus [4], 7.07%; in the data set with Pseudomonas aeruginosa [5], 27.4%; in the data set on Staphylococcus aureus [10] it was -8.17%; in data set [16], -9.93%; with Staphylococcus aureus [21] it was -124%.
With `O=C(NC/C=C/c1cnc2ncccn12)c1cc(Br)c[nH]1`, the Activity with Pseudomonas aeruginosa [1] was -19.9%; in the data set with Staphylococcus aureus [3], 8.6%; in data set [6], -3.1%; in the data set on Staphylococcus aureus [9], -16.4%; in the data set on Staphylococcus aureus [12], -8.7%; in data set [13] it was -24%. In addition, the inhibition at 50 µg/mL in data set [2] was 14%; in the data set with Staphylococcus aureus [4] it was 36%; in the data set on Pseudomonas aeruginosa [5], 2.1%; with Staphylococcus aureus [10], -5.5%; in data set [16], -1.8%; with Staphylococcus aureus [21], -108%.
For `Cl.Cl.NCCC(=O)c1cnc2ncccn12`, the Activity with Pseudomonas aeruginosa [1] is on record as 11.1%; with Staphylococcus aureus [3], -3.3%; in data set [6], 5.5%; in the data set on Staphylococcus aureus [9], -12.6%; in the data set on Staphylococcus aureus [12], -0.9%; in data set [13] it was 3.5%. Also, the inhibition at 50 µg/mL was 33% in data set [2]; -1.8% with Staphylococcus aureus [4]; -1.5% in the data set with Pseudomonas aeruginosa [5]; 57.1% in the data set on Staphylococcus aureus [10]; 4.2% in data set [16]; -10.6% in the data set with Staphylococcus aureus [21].
For the compound `O=C(NC/C=C/c1cnc2ncccn12)c1cc(Br)c(Br)[nH]1`, the Activity in the data set on Pseudomonas aeruginosa [1] is reported as 11.6%; with Staphylococcus aureus [3], 3.3%; in data set [6] it was 9.1%; in the data set on Staphylococcus aureus [9], -6.1%; in the data set on Staphylococcus aureus [12] it was -0.5%; in data set [13], 7.8%. Also, the inhibition at 50 µg/mL in [2] is 18.3%; in the data set on Staphylococcus aureus [4], 38.9%; with Pseudomonas aeruginosa [5] it was -1.7%; with Staphylococcus aureus [10], -0.4%; in [16] it was -16.6%; with Staphylococcus aureus [21], -9.7%.
On to `Nc1ncc(/C=C/CNC(=O)c2cc(Br)c(Br)[nH]2)[nH]1` [OROIDIN], for which the pIC50 with Staphylococcus aureus [23] is 3.78.
For the compound `O=C(NCC(O)c1cnc2ncccn12)c1ccc[nH]1` (stereo unspecified), the Activity was -15.89% in the data set on Pseudomonas aeruginosa [1]; 6.67% in the data set on Staphylococcus aureus [3]; 11.45% in data set [6]; 0.95% in the data set on Staphylococcus aureus [9]; 10.52% with Staphylococcus aureus [12]; -3.27% in data set [13]. Moreover, the inhibition at 50 µg/mL in data set [2] was -1.26%; with Staphylococcus aureus [4], -25.1%; in the data set on Pseudomonas aeruginosa [5], 13.2%; with Staphylococcus aureus [10] it was -1.6%; in data set [16] it was -16.8%; in the data set on Staphylococcus aureus [21] it was 16.9%.
As to `Cl.Cl.NCC(=O)c1cnc2ncccn12`, the Activity with Pseudomonas aeruginosa [1] is listed as 28.8%; in the data set with Staphylococcus aureus [3] it was 6.2%; in [6], 6.4%; in the data set with Staphylococcus aureus [9], 7.8%; with Staphylococcus aureus [12], 2%; in data set [13] it was -0.6%. Besides, the inhibition at 50 µg/mL in data set [2] was 0.9%; in the data set on Staphylococcus aureus [4] it was -30.2%; with Pseudomonas aeruginosa [5], 5.6%; in the data set on Staphylococcus aureus [10], -5.1%; in [16], 28.7%; with Staphylococcus aureus [21], 4.3%.
